Source: ChEMBL document CHEMBL4507319 (2021)

Key:
Conditions in all cases: Compound concentration 1000.0 nM
[1] = target: Tyrosine-protein kinase ABL1 (Homo sapiens) (UniProt P00519)
[2] = target: Activin receptor type-2A (Homo sapiens) (UniProt P27037)
[3] = target: Calcium/calmodulin-dependent protein kinase kinase 2 (Homo sapiens) (UniProt Q96RR4)
[4] = target: Cyclin-dependent kinase 8 (Homo sapiens) (UniProt P49336)
[5] = target: Casein kinase I isoform gamma-2 (Homo sapiens) (UniProt P78368)
[6] = target: Tyrosine-protein kinase Fes/Fps (Homo sapiens) (UniProt P07332)
[7] = target: Fibroblast growth factor receptor 2 (Homo sapiens) (UniProt P21802)
[8] = target: Mitogen-activated protein kinase 8 (Homo sapiens) (UniProt P45983)
[9] = target: MAP kinase-activated protein kinase 2 (Homo sapiens) (UniProt P49137)
[10] = target: T1, Serine/threonine-protein kinase Nek3 (Homo sapiens) (UniProt P51956)
T1 sequence (whole entry): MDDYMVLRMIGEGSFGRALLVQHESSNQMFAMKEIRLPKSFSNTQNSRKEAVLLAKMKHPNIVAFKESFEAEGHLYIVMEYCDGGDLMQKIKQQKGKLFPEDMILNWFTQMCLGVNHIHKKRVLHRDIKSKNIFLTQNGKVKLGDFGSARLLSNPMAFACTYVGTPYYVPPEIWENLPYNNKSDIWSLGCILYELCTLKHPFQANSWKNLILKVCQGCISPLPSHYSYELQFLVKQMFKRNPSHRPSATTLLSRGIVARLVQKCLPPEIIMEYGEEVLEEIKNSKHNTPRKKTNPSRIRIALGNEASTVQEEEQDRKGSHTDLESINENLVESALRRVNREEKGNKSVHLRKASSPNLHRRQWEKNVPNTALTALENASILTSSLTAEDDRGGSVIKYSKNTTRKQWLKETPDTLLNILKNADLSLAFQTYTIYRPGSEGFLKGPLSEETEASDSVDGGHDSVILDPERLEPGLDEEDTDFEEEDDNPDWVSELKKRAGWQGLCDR

[11] = target: T2, Serine/threonine-protein kinase Nek9 (Homo sapiens) (UniProt Q8TD19)
T2 sequence (whole entry): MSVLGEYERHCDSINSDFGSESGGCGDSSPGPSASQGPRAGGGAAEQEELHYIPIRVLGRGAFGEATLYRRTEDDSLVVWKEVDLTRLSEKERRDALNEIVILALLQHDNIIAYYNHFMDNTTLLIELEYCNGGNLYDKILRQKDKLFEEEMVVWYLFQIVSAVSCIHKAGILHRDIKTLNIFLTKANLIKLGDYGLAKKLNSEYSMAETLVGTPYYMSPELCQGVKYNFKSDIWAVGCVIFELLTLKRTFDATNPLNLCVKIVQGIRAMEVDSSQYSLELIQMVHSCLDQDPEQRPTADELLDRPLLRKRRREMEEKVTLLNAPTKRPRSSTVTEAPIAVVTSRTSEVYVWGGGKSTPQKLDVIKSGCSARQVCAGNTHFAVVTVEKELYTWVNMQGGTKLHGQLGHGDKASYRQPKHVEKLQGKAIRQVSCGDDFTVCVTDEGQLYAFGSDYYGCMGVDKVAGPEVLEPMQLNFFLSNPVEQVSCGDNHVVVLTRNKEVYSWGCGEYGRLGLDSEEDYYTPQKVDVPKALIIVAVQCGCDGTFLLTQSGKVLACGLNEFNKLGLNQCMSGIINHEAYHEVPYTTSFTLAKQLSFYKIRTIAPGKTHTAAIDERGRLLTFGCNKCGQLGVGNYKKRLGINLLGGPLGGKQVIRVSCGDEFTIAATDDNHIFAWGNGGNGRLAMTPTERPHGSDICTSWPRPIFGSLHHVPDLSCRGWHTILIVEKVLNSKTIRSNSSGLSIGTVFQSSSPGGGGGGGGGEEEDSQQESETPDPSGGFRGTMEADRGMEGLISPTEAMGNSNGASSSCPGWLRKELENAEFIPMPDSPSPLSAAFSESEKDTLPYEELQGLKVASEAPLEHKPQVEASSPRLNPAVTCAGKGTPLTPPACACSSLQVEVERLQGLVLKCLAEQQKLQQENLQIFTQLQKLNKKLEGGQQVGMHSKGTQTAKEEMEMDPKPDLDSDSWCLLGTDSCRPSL

[12] = target: Platelet-derived growth factor receptor beta (Homo sapiens) (UniProt P09619)
[13] = tested on: Phosphatidylinositol 4,5-bisphosphate 3-kinase catalytic subunit alpha isoform (Homo sapiens), P42336 [E545K]
[14] = target: Phosphatidylinositol 4,5-bisphosphate 3-kinase catalytic subunit delta isoform (Homo sapiens) (UniProt O00329)
[15] = target: Interferon-induced, double-stranded RNA-activated protein kinase (Homo sapiens) (UniProt P19525)
[16] = target: Receptor-interacting serine/threonine-protein kinase 1 (Homo sapiens) (UniProt Q13546)
[17] = target: Dual serine/threonine and tyrosine protein kinase (Homo sapiens) (UniProt Q6XUX3)

Measured: residual activity

Mitogen-activated protein kinase 8 (Homo sapiens), sequence (P45983 whole entry): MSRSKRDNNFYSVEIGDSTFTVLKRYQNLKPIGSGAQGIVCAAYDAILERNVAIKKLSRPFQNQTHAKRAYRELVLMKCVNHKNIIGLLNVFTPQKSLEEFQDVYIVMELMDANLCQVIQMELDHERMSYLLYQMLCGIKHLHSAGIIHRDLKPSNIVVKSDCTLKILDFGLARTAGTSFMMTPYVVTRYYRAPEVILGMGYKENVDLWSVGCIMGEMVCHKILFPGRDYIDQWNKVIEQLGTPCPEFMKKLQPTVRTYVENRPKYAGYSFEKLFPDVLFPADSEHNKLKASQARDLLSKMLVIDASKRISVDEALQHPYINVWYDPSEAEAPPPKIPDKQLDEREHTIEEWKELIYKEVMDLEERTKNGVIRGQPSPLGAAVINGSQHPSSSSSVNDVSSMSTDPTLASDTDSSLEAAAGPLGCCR
Calcium/calmodulin-dependent protein kinase kinase 2 (Homo sapiens), sequence (Q96RR4 2-588 limits assumed): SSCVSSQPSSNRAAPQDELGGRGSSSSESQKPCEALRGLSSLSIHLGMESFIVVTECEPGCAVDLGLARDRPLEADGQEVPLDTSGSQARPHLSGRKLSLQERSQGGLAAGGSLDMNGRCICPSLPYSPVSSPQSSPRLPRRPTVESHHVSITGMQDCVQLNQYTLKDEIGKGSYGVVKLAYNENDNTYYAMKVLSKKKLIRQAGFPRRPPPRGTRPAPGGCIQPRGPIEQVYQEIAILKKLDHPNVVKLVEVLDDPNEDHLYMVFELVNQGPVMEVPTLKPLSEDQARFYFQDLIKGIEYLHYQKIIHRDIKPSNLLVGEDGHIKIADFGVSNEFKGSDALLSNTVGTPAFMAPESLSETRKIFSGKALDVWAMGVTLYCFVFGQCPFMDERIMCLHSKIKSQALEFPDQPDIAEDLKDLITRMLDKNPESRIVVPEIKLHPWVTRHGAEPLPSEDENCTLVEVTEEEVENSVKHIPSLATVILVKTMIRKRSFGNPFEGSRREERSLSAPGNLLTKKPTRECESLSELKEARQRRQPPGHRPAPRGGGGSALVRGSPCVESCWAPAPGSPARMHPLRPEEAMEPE
Fibroblast growth factor receptor 2 (Homo sapiens), sequence (P21802 22-821 limits assumed): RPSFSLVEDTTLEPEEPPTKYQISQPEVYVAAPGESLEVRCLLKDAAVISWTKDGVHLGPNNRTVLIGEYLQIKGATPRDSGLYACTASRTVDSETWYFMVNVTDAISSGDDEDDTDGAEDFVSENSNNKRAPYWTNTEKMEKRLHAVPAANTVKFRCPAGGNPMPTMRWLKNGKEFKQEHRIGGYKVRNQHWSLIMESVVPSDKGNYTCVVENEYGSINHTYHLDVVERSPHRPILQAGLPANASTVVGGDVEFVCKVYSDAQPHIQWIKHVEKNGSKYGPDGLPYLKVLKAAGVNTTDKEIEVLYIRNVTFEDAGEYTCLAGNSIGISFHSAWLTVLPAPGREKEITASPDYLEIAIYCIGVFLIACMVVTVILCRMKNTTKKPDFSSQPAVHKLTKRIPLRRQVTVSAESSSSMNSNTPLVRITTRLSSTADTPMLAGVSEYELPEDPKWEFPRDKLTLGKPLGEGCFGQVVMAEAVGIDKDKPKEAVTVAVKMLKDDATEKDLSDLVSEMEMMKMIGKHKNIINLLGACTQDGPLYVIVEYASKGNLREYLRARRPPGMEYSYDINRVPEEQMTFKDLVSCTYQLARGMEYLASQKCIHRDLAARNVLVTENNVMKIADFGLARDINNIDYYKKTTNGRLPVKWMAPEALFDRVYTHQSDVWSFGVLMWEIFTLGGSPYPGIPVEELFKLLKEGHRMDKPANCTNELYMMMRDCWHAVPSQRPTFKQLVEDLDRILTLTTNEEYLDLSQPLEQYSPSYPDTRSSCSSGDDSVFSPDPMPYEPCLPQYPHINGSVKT
Dual serine/threonine and tyrosine protein kinase (Homo sapiens), sequence (Q6XUX3 whole entry): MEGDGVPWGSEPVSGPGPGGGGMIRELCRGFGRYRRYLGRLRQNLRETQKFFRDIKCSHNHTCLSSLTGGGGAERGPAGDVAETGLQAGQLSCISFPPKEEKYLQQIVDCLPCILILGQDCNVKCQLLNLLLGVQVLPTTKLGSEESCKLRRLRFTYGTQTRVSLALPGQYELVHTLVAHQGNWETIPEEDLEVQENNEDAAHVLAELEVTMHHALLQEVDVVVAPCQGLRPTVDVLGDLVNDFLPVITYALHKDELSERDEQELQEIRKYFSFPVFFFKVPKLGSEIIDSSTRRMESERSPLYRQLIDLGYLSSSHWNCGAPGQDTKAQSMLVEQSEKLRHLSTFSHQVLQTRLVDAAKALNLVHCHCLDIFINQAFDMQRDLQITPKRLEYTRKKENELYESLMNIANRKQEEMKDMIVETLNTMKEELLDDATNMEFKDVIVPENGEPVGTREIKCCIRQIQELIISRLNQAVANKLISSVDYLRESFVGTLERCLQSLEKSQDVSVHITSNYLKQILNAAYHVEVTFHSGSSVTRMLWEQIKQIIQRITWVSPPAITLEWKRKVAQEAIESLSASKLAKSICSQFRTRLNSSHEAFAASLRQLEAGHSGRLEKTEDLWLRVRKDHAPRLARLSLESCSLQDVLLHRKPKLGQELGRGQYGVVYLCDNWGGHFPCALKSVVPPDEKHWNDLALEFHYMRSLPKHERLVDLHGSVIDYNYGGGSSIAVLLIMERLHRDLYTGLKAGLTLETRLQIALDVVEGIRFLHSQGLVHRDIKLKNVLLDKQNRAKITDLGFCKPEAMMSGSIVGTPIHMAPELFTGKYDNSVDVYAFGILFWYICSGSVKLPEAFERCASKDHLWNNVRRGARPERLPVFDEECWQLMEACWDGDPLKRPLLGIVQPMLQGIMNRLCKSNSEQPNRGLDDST
Activin receptor type-2A (Homo sapiens), sequence (P27037 whole entry): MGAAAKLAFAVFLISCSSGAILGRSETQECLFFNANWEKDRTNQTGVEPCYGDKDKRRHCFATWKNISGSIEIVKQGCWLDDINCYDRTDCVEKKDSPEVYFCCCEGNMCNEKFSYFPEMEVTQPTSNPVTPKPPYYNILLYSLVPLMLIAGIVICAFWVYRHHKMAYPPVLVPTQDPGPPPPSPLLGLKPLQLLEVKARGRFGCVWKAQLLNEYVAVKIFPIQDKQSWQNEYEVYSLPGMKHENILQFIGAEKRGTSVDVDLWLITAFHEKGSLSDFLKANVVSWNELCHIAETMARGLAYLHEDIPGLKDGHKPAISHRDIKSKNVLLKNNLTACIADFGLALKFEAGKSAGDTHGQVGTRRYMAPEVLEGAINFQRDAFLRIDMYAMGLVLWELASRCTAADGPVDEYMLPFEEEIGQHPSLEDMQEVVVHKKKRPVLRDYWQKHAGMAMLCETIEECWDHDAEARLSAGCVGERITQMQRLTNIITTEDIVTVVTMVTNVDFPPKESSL
Tyrosine-protein kinase ABL1 (Homo sapiens), sequence (P00519 whole entry): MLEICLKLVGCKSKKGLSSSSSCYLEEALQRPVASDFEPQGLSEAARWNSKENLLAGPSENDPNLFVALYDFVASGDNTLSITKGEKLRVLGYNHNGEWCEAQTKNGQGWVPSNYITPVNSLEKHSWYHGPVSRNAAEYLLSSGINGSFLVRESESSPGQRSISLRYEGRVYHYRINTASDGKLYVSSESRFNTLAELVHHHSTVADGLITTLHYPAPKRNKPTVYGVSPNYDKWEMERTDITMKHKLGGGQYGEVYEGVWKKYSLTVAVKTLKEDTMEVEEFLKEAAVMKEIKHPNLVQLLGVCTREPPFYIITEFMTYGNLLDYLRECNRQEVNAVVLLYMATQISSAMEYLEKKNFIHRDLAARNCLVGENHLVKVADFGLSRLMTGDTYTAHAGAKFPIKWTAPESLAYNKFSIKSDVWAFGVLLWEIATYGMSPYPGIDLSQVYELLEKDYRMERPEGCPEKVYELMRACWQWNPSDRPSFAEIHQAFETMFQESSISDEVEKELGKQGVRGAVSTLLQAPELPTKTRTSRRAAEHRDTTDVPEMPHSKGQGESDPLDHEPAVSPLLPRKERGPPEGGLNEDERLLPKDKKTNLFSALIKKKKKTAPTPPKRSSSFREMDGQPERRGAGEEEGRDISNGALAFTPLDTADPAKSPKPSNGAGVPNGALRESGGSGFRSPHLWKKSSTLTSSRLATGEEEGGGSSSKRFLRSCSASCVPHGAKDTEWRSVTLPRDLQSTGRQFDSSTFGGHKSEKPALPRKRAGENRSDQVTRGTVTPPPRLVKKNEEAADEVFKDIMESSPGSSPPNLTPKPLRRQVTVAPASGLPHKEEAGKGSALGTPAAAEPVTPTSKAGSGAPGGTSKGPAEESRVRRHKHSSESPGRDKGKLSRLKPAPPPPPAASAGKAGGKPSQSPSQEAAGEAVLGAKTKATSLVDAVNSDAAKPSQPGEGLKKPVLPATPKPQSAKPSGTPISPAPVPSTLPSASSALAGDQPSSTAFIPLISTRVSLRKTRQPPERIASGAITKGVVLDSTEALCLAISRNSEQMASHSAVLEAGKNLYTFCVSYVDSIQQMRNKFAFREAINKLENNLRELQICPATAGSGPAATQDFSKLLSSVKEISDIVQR
Interferon-induced, double-stranded RNA-activated protein kinase (Homo sapiens), sequence (P19525 whole entry): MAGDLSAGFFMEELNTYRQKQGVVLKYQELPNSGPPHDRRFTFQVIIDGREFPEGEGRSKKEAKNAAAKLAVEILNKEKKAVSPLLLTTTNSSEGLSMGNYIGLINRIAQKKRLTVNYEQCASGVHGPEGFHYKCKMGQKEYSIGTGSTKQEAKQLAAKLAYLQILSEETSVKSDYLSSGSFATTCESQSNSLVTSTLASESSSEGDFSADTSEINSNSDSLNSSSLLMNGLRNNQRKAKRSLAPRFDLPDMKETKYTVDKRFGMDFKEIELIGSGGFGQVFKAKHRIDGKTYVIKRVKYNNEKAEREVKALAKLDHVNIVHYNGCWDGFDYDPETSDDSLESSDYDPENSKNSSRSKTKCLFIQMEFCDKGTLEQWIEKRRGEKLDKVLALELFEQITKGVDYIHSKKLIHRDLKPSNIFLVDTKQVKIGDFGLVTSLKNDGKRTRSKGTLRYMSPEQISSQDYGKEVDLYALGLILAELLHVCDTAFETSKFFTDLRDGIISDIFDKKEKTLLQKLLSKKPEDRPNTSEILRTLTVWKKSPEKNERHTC

CCc1ccccc1C(=O)Nc1n[nH]c2c(C)c(F)c(C3C(C#N)=C(C)N(C)C(C)=C3C#N)cc12 [BAY-3827]
inactive: [1] 78% | [2] 100% | [3] 95% | [4] 71% | [5] 97% | [6] 68% | [7] 83% | [8] 71% | [9] 100% | [10] 100% | [11] 93% | [12] 82% | [13] 100% | [14] 90% | [15] 100% | [16] 100% | [17] 95%

CC1=C(C#N)C(c2ccc3c(c2)c(NC(=O)c2ccccc2C)nn3C)C(C#N)=C(C)N1 [BAY-974]
inactive: [1] 86% | [2] 97% | [3] 100% | [4] 97% | [5] 95% | [6] 84% | [7] 97% | [8] 88% | [9] 84% | [10] 94% | [11] 100% | [12] 94% | [13] 90% | [14] 71% | [15] 100% | [16] 100% | [17] 72%
